Data: US20210330611A1, “THERAPY FOR NEUROLOGICAL DISEASES/DISORDERS” (priority 2020, published 2021)
Structures can show the parent of a compound that is named as a salt. Where two headings read alike, the source gives them in different places.

Columns and labels:
[1] = system: fibrin-induced microglia activation; test: Image-based assay of fibrin-induced microglia activation (HTS and dose response); assay type: cell-based, rat; conditions: for IC50 / inhibition at 10 µM: Rattus norvegicus, Microglia; for inhibition at 10 µM: read-out: Fibrin % inhibition
[2] = system: LPS-induced microglia activation; test: Image-based assay of LPS-induced microglia activation (HTS and dose response); assay type: cell-based, rat; conditions: Rattus norvegicus, Microglia; for inhibition at 10 µM: read-out: LPS % inhibition
[3] = system: fibrin- and LPS-induced microglia activation; test: cells; assay type: cell-based, rat; conditions: for inhibition at 10 µM: Rattus norvegicus; for Activity: Table 7, fib = fibrin, LPS, tox = toxicity
primary rat microglia [4] = conditions: rat
primary rat microglia [5] = conditions: rat; remark: listed apart in the source
in vitro [6] = conditions: rat, Cell Toxicity IC50 (uM) [cFib assay]
in vitro [7] = conditions: rat
primary rat microglia [8] = test: Cell toxicity (dead cells, size <150 μm2) in LPS assay; conditions: read-out: Cell Toxicity IC50 (uM) [LPS assay]; LPS assay
[9] = 48 h, Table 1, dose response 0.001-20 μM, triplicates, primary rat microglia, 48 h, read-out: Fibrin IC50
[10] = Table 3, read-out: Fibrin IC50 (uM) (Suppl. Table 7)
[11] = dose response, fibrin-induced microglia activation, read-out: Fibrin IC50
[12] = fibrin-induced microglia activation, dose response, read-out: Fibrin IC50 (uM) (Suppl. Table 7)
[13] = primary microglia HTS, fibrin stimulation, increased cell size (>800 μm^2) as marker of activation
[14] = 48 h, Table 1, dose response 0.001-20 μM, triplicates, primary rat microglia, 48 h, read-out: LPS IC50
[15] = 48 h, primary microglia HTS, LPS stimulation, increased cell size (>800 μm^2) as marker of activation
[16] = LPS-induced microglia activation, dose response, read-out: LPS IC50 (uM) (Suppl. Table 7)
[17] = Table 3, read-out: LPS IC50 (uM) (Suppl. Table 7)
[18] = dose response, LPS-induced microglia activation, read-out: LPS IC50
[19] = HTS of 1907 compounds, quadrant by fibrin and LPS inhibition
[20] = Microglia, Table 3, read-out: Cherry-picked Hit (Suppl. Table 7)
[21] = Microglia, HTS hit classification, read-out: Hit
[22] = quadrant by fibrin and LPS inhibition in HTS of 1907 compounds
[23] = read-out: Fibrin IC50 (uM) (Suppl. Table 7)
[24] = read-out: LPS IC50 (uM) (Suppl. Table 7)
[25] = Microglia, read-out: Cherry-picked Hit (Suppl. Table 7)
[26] = hit classification in microglia HTS, read-out: Cherry-picked Hit (Suppl. Table 7)
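Wherever Fibrin % cell toxicity is given: share of dead cells sized under 150 µm2 at 10 µM in fibrin-stimulated microglia HTS.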

| Compound | Fibrin Selectivity [1] | Fibrin Selectivity (LOG10) [1] | IC50 [1, 9] | IC50 [1, 11] | IC50 [1, 12] | inhibition at 10 µM [1, 13] | IC50 [2, 14] | inhibition at 10 µM [2, 15] | IC50 [2, 16] | IC50 [2, 18] | Quadrant (FIG. 5b) [3, 19] | inhibition at 10 µM [3, 21] | Quadrant (FIG. 5b) ([3]; Table 1, screen at 10 μM) | Quadrant (FIG. 5b) [3, 22] | Fibrin % cell toxicity (primary rat microglia [4]) | LPS % cell toxicity (primary rat microglia [5]) | IC50 (in vitro [6]; cFib assay) | IC50 (in vitro [7]) | IC50 (in vitro [6]) | inhibition at 10 µM [3, 26] | also measured |
| --- | --- | --- | --- | --- | --- | --- | --- | --- | --- | --- | --- | --- | --- | --- | --- | --- | --- | --- | --- | --- | --- |
| O=c1[nH]cc(F)c(=O)[nH]1 [Fluorouracil, reference compound] | 3 | 0.44 | 7 µM | 7 µM | 7 µM | 56% | > 20 µM | 40% | > 20 µM | > 20 µM | Q3 | > 50% | Q3 | Q3 | 1% | 1% | > 20 µM | > 20 µM | – | – | IC50 [1, 10]: 7 µM; IC50 [2, 17]: > 20 µM; inhibition at 10 µM [3, 20]: > 50%; Quadrant (FIG. 5b) ([3]; Table 3, screen at 10 μM): Q3; IC50 (in vitro [6]; Table 3): > 20 µM; IC50 (primary rat microglia [8]): > 20 µM |
| CC(=O)O[C@]1(C(C)=O)CC[C@H]2[C@@H]3C=C(C)C4=CC(=O)CC[C@]4(C)[C@H]3CC[C@@]21C [Megestrol acetate, reference compound] | 4 | 0.63 | 5 µM | 5 µM | 5 µM | – | > 20 µM | 24% | > 20 µM | > 20 µM | Q3 | > 50% | Q3 | – | 1% | – | > 20 µM | > 20 µM | – | – | IC50 [1, 10]: 5 µM; IC50 [2, 17]: > 20 µM; inhibition at 10 µM [3, 20]: > 50%; Quadrant (FIG. 5b) ([3]; Table 3, screen at 10 μM): Q3; IC50 (in vitro [6]; Table 3): > 20 µM; IC50 (primary rat microglia [8]): > 20 µM |
| C#CCN[C@@H]1CCc2ccccc21 [Rasagiline, reference compound] | – | – | – | – | – | – | – | – | – | – | – | – | – | – | 1% | 1% | – | > 20 µM | > 20 µM | – | IC50 ([1]; 48 h, read-out: Fibrin IC50): 20 µM; inhibition at 10 µM [1]: 76%; IC50 ([1]; read-out: Fibrin IC50 (uM)): 20 µM; IC50 [1, 23]: 20 µM; inhibition at 10 µM ([2]; 48 h): 28%; IC50 ([2]; 48 h, read-out: LPS IC50): > 20 µM; IC50 ([2]; read-out: LPS IC50 (uM)): > 20 µM; IC50 [2, 24]: > 20 µM; Quadrant (FIG. 5b) [3]: Q3; inhibition at 10 µM [3, 25]: > 50%; inhibition at 10 µM ([3]; Microglia, read-out: Hit): > 50% |
| OCc1cc(C(O)CNCCCCCCOCCCCc2ccccc2)ccc1O (stereo not drawn) [Salmeterol, reference compound] | 10 | 1.02 | – | – | – | – | – | – | – | – | – | – | – | – | 1% | 1% | – | > 20 µM | > 20 µM | – | IC50 ([1]; 48 h, read-out: Fibrin IC50): 1 µM; inhibition at 10 µM [1]: 56%; IC50 ([1]; read-out: Fibrin IC50 (uM)): 1 µM; IC50 [1, 23]: 1 µM; inhibition at 10 µM ([2]; 48 h): 29%; IC50 ([2]; 48 h, read-out: LPS IC50): 14 µM; IC50 ([2]; read-out: LPS IC50 (uM)): 14 µM; IC50 [2, 24]: 14 µM; Quadrant (FIG. 5b) [3]: Q3; inhibition at 10 µM [3, 25]: > 50%; inhibition at 10 µM ([3]; Microglia, read-out: Hit): > 50% |
| CC(C)(C)NC(=O)[C@@H]1C[C@@H]2CCCC[C@@H]2CN1C[C@@H](O)[C@H](Cc1ccccc1)NC(=O)[C@H](CC(N)=O)NC(=O)c1ccc2ccccc2n1 [Saquinavir, reference compound] | – | – | > 20 µM | > 20 µM | > 20 µM | 51% | > 20 µM | 56% | > 20 µM | > 20 µM | Q2 | > 50% | Q2 | Q2 | 1% | 1% | > 20 µM | > 20 µM | – | > 50% | – |
| CO[C@H]1C[C@H](O[C@@H]2/C(C)=C/C[C@@H]3C[C@@H](C[C@]4(CC[C@H](C)[C@@H](C5CCCCC5)O4)O3)OC(=O)[C@@H]3C=C(C)/C(=N/O)[C@H]4OC/C(=C\C=C\[C@@H]2C)[C@]43O)O[C@@H](C)[C@@H]1O [Selamectin, reference compound] | 3 | 0.51 | – | – | – | – | – | – | – | – | – | – | – | – | 1% | 1% | – | > 20 µM | > 20 µM | – | IC50 ([1]; 48 h, read-out: Fibrin IC50): 6 µM; inhibition at 10 µM [1]: 51%; IC50 ([1]; read-out: Fibrin IC50 (uM)): 6 µM; IC50 [1, 23]: 6 µM; inhibition at 10 µM ([2]; 48 h): 42%; IC50 ([2]; 48 h, read-out: LPS IC50): > 20 µM; IC50 ([2]; read-out: LPS IC50 (uM)): > 20 µM; IC50 [2, 24]: > 20 µM; Quadrant (FIG. 5b) [3]: Q3; inhibition at 10 µM [3, 25]: > 50%; inhibition at 10 µM ([3]; Microglia, read-out: Hit): > 50% |
| COc1cc([C@@H]2c3cc4c(cc3[C@@H](O[C@@H]3O[C@@H]5CO[C@@H](c6cccs6)O[C@H]5[C@H](O)[C@H]3O)[C@H]3COC(=O)[C@H]23)OCO4)cc(OC)c1O [Teniposide, reference compound] | – | – | 2 µM | 2 µM | 2 µM | 91% | 1 µM | 100% | 1 µM | 1 µM | Q2 | > 50% | Q2 | Q2 | 2% | 18% | 20 µM | 4 µM | – | > 50% | IC50 ([1]; Table 7, read-out: fib_IC50): 0.821 µM; IC50 ([2]; Table 7, read-out: LPS_IC50): 0.24 µM; Quadrant (FIG. 5b) ([3]; Table 2, screen at 10 μM): Q2; Activity [3]: fib/LPS |
| CC(=O)OCC(=O)[C@@]1(O)[C@H](OC(C)=O)C[C@H]2[C@@H]3CCC4=CC(=O)C=C[C@]4(C)[C@@]3(F)[C@@H](O)C[C@@]21C [Triamcinolone diacetate, reference compound] | 17 | 1.23 | 0.04 µM | 0.04 µM | 0.04 µM | 110% | 0.8 µM | 100% | 0.8 µM | 0.8 µM | Q2 | > 50% | Q2 | Q2 | 2% | 5% | – | > 20 µM | > 20 µM | – | IC50 [1, 10]: 0.04 µM; IC50 ([1]; Table 7, read-out: fib_IC50): 0.002 µM; IC50 [2, 17]: 0.8 µM; IC50 ([2]; Table 7, read-out: LPS_IC50): 0.002 µM; inhibition at 10 µM [3, 20]: > 50%; Quadrant (FIG. 5b) ([3]; Table 2, screen at 10 μM): Q2; Quadrant (FIG. 5b) ([3]; Table 3, screen at 10 μM): Q2; Activity [3]: fib/LPS |
| CN1CCN(CCCN2c3ccccc3Sc3ccc(C(F)(F)F)cc32)CC1 [Trifluoperazine dihydrochloride, reference compound] | – | – | 12 µM | 12 µM | 12 µM | 69% | 6 µM | 26% | 6 µM | 6 µM | Q3 | > 50% | Q3 | Q3 | 2% | 0% | > 20 µM | 12 µM | – | > 50% | – |
| CC(CN(C)C)CN1c2ccccc2CCc2ccccc21 (stereo not drawn) [Trimipramine maleate, reference compound] | – | – | 7 µM | 7 µM | 7 µM | 52% | 5 µM | 92% | 5 µM | 5 µM | Q2 | > 50% | Q2 | Q2 | 1% | 5% | > 20 µM | 12 µM | – | > 50% | – |
